Data published in article PMC5146859, “Phase 1/2 study of pacritinib, a next generation JAK2/FLT3 inhibitor, in myelofibrosis or other myeloid malignancies” (Journal of Hematology & Oncology, 2016).

System: patients with advanced myeloid malignancies
Experiment: Phase 1 safety: adverse events (NCIC-CTCAE version 3.0)
Format: in vivo, human
Description: At screening/baseline, patients underwent a medical history, physical examination, vital sign assessment, ECOG PS assessment, electrocardiogram, and assessment of hematologic parameters and blood chemistry. Hematology/blood chemistry, physical examinations, and vital sign assessments were performed throughout treatment. Toxicity was assessed using the National Cancer Institute Common Terminology Criteria for Adverse Events (NCIC-CTCAE), version 3.0, with relationship to treatment assigned by the investigator and were recorded from the first dose of pacritinib until 30 days after the last dose. Bone marrow biopsy and/or aspirate samples were drawn at baseline, on day 1 of cycle 4 and cycle 10, as clinically indicated, and at the termination visit. Disease response and progression were determined using the relevant International Working Group (IWG) criteria.
The efficacy-evaluable population included those patients with a baseline and corresponding follow-up value. The safety population included all enrolled patients who received ≥1 dose of pacritinib.

SMILES: C1=C/COCc2cc(ccc2OCCN2CCCC2)Nc2nccc(n2)-c2cccc(c2)COC/1 [pacritinib, 11-(2-pyrrolidin-1-yl-ethoxy)-14,19-dioxa-5,7,26-triaza-tetracyclo[19.3.1.1(2,6). 1(8,12)]heptacosa-1(25),2(26),3,5,8,10,12(27),16,21,23-decaene]
- Treatment-emergent AE: Dehydration (phase 1, 200 mg, n = 9): 0 n (%)
- Treatment-emergent AE: Diarrhea (phase 1, 200 mg, n = 9): 5 (55.6) n (%)
- Treatment-emergent AE: Dizziness (phase 1, 200 mg, n = 9): 2 (22.2) n (%)
- Treatment-emergent AE: Dyspnea (phase 1, 200 mg, n = 9): 0 n (%)
- Treatment-emergent AE: Edema peripheral (phase 1, 200 mg, n = 9): 1 (11.1) n (%)
- Treatment-emergent AE: Epistaxis (phase 1, 200 mg, n = 9): 1 (11.1) n (%)
- Treatment-emergent AE: Fatigue (phase 1, 200 mg, n = 9): 3 (33.3) n (%)
- Treatment-emergent AE: Hyperbilirubinemia (phase 1, 200 mg, n = 9): 1 (11.1) n (%)
- Treatment-emergent AE: Hyperuricemia (phase 1, 200 mg, n = 9): 0 n (%)
- Treatment-emergent AE: Insomnia (phase 1, 200 mg, n = 9): 2 (22.2) n (%)
- Treatment-emergent AE: Nausea (phase 1, 200 mg, n = 9): 2 (22.2) n (%)
- Treatment-emergent AE: Neutropenia (phase 1, 200 mg, n = 9): 0 n (%)
- Treatment-emergent AE: Night sweats (phase 1, 200 mg, n = 9): 1 (11.1) n (%)
- Treatment-emergent AE: Pain in extremity (phase 1, 200 mg, n = 9): 0 n (%)
- Treatment-emergent AE: Petechiae (phase 1, 200 mg, n = 9): 0 n (%)
- Treatment-emergent AE: Pyrexia (phase 1, 200 mg, n = 9): 2 (22.2) n (%)
- Treatment-emergent AE: Skin lesion (phase 1, 200 mg, n = 9): 1 (11.1) n (%)
- Treatment-emergent AE: Thrombocytopenia (phase 1, 200 mg, n = 9): 0 n (%)
- Treatment-emergent AE: Upper respiratory tract infection (phase 1, 200 mg, n = 9): 2 (22.2) n (%)
- Treatment-emergent AE: Vomiting (phase 1, 200 mg, n = 9): 4 (44.4) n (%)
- Treatment-emergent AE: Abdominal distension (phase 1, 300 mg, n = 6): 1 (16.7) n (%)
- Treatment-emergent AE: Abdominal pain (phase 1, 300 mg, n = 6): 1 (16.7) n (%)
- Treatment-emergent AE: Anemia (phase 1, 300 mg, n = 6): 1 (16.7) n (%)
- Treatment-emergent AE: Any AE (phase 1, 300 mg, n = 6): 6 (100.0) n (%)
- Treatment-emergent AE: Asthenia (phase 1, 300 mg, n = 6): 0 n (%)
- Treatment-emergent AE: Back pain (phase 1, 300 mg, n = 6): 1 (16.7) n (%)
- Treatment-emergent AE: Cardiac murmur (phase 1, 300 mg, n = 6): 0 n (%)
- Treatment-emergent AE: Chills (phase 1, 300 mg, n = 6): 0 n (%)
- Treatment-emergent AE: Constipation (phase 1, 300 mg, n = 6): 1 (16.7) n (%)
- Treatment-emergent AE: Cough (phase 1, 300 mg, n = 6): 1 (16.7) n (%)
- Treatment-emergent AE: Decreased appetite (phase 1, 300 mg, n = 6): 0 n (%)
- Treatment-emergent AE: Dehydration (phase 1, 300 mg, n = 6): 0 n (%)
- Treatment-emergent AE: Diarrhea (phase 1, 300 mg, n = 6): 3 (50.0) n (%)
- Treatment-emergent AE: Dizziness (phase 1, 300 mg, n = 6): 1 (16.7) n (%)
- Treatment-emergent AE: Dyspnea (phase 1, 300 mg, n = 6): 0 n (%)
- Treatment-emergent AE: Edema peripheral (phase 1, 300 mg, n = 6): 0 n (%)
- Treatment-emergent AE: Epistaxis (phase 1, 300 mg, n = 6): 2 (33.3) n (%)
- Treatment-emergent AE: Fatigue (phase 1, 300 mg, n = 6): 2 (33.3) n (%)
- Treatment-emergent AE: Hyperbilirubinemia (phase 1, 300 mg, n = 6): 1 (16.7) n (%)
- Treatment-emergent AE: Hyperuricemia (phase 1, 300 mg, n = 6): 0 n (%)
- Treatment-emergent AE: Insomnia (phase 1, 300 mg, n = 6): 1 (16.7) n (%)
- Treatment-emergent AE: Nausea (phase 1, 300 mg, n = 6): 3 (50.0) n (%)
- Treatment-emergent AE: Neutropenia (phase 1, 300 mg, n = 6): 1 (16.7) n (%)
- Treatment-emergent AE: Night sweats (phase 1, 300 mg, n = 6): 0 n (%)
- Treatment-emergent AE: Pain in extremity (phase 1, 300 mg, n = 6): 1 (16.7) n (%)
- Treatment-emergent AE: Petechiae (phase 1, 300 mg, n = 6): 0 n (%)
- Treatment-emergent AE: Pyrexia (phase 1, 300 mg, n = 6): 1 (16.7) n (%)
- Treatment-emergent AE: Skin lesion (phase 1, 300 mg, n = 6): 0 n (%)
- Treatment-emergent AE: Thrombocytopenia (phase 1, 300 mg, n = 6): 1 (16.7) n (%)
- Treatment-emergent AE: Upper respiratory tract infection (phase 1, 300 mg, n = 6): 1 (16.7) n (%)
- Treatment-emergent AE: Vomiting (phase 1, 300 mg, n = 6): 2 (33.3) n (%)
- Treatment-emergent AE: Abdominal distension (phase 1, 400 mg, n = 6): 3 (50.0) n (%)
- Treatment-emergent AE: Abdominal pain (phase 1, 400 mg, n = 6): 2 (33.3) n (%)
- Treatment-emergent AE: Anemia (phase 1, 400 mg, n = 6): 2 (33.3) n (%)
- Treatment-emergent AE: Any AE (phase 1, 400 mg, n = 6): 6 (100.0) n (%)
- Treatment-emergent AE: Asthenia (phase 1, 400 mg, n = 6): 0 n (%)
- Treatment-emergent AE: Back pain (phase 1, 400 mg, n = 6): 2 (33.3) n (%)
- Treatment-emergent AE: Cardiac murmur (phase 1, 400 mg, n = 6): 1 (16.7) n (%)
- Treatment-emergent AE: Chills (phase 1, 400 mg, n = 6): 1 (16.7) n (%)
- Treatment-emergent AE: Constipation (phase 1, 400 mg, n = 6): 2 (33.3) n (%)
- Treatment-emergent AE: Cough (phase 1, 400 mg, n = 6): 1 (16.7) n (%)
- Treatment-emergent AE: Decreased appetite (phase 1, 400 mg, n = 6): 3 (50.0) n (%)
- Treatment-emergent AE: Dehydration (phase 1, 400 mg, n = 6): 2 (33.3) n (%)
- Treatment-emergent AE: Diarrhea (phase 1, 400 mg, n = 6): 6 (100.0) n (%)
- Treatment-emergent AE: Dizziness (phase 1, 400 mg, n = 6): 1 (16.7) n (%)
- Treatment-emergent AE: Dyspnea (phase 1, 400 mg, n = 6): 2 (33.3) n (%)
- Treatment-emergent AE: Edema peripheral (phase 1, 400 mg, n = 6): 2 (33.3) n (%)
- Treatment-emergent AE: Epistaxis (phase 1, 400 mg, n = 6): 1 (16.7) n (%)
- Treatment-emergent AE: Fatigue (phase 1, 400 mg, n = 6): 2 (33.3) n (%)
- Treatment-emergent AE: Hyperbilirubinemia (phase 1, 400 mg, n = 6): 1 (16.7) n (%)
- Treatment-emergent AE: Hyperuricemia (phase 1, 400 mg, n = 6): 0 n (%)
- Treatment-emergent AE: Insomnia (phase 1, 400 mg, n = 6): 1 (16.7) n (%)
- Treatment-emergent AE: Nausea (phase 1, 400 mg, n = 6): 4 (66.7) n (%)
- Treatment-emergent AE: Neutropenia (phase 1, 400 mg, n = 6): 1 (16.7) n (%)
- Treatment-emergent AE: Night sweats (phase 1, 400 mg, n = 6): 2 (33.3) n (%)
- Treatment-emergent AE: Pain in extremity (phase 1, 400 mg, n = 6): 0 n (%)
